For seven molecules, GI50 and TGI results are on record in PubChem BioAssay (NCI).

Test systems include A498 renal; CAKI-1 renal; KM12 colon; NCI/ADR-RES ovarian; OVCAR-5 ovarian; RPMI-8226 leukemia; SK-MEL-2 melanoma; SK-MEL-28 melanoma; SN12C renal; U251 CNS.
Assay in all cases: NCI tumour cell line growth inhibition, 48 h

“And” between values parts separate entries of the source, which are not always exact repeats. Equal entries are not always repeated.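 These data come from cells grown in 96-well plates and exposed to compound for 48 hours at five concentrations. The concentration for 50% growth inhibition is given as GI50. At the TGI there is no net growth.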

`FC(F)c1nc2ccccc2n1-c1nc(N2CCOCC2)nc(N2CCOCC2)n1`: the GI50 in the experiment on A498 renal was 0.0303 µM and 0.0216 µM; in the experiment with CAKI-1 renal it was 0.197 µM and 0.268 µM; in the experiment on KM12 colon, 0.739 µM and 0.969 µM; in the experiment on NCI/ADR-RES ovarian, 0.457 µM and 0.496 µM; in the experiment with OVCAR-5 ovarian, 0.329 µM and 0.447 µM; with RPMI-8226 leukemia, 0.482 µM and 0.345 µM. Further, the GI50 in the experiment on SK-MEL-2 melanoma is 0.519 µM and 1.08 µM; in the experiment with SK-MEL-28 melanoma, 0.174 µM and 0.244 µM; in the experiment on SN12C renal, 0.247 µM and 0.332 µM; with U251 CNS it was 0.735 µM and 0.559 µM. Also, the TGI was 0.169 µM and 0.138 µM with A498 renal; 4.25 µM and 2.35 µM with CAKI-1 renal; over 100 µM in the experiment with KM12 colon; over 100 µM with NCI/ADR-RES ovarian; over 100 µM in the experiment with OVCAR-5 ovarian; > 7.2 µM and 4.26 µM in the experiment with RPMI-8226 leukemia. Moreover, the TGI in the experiment on SK-MEL-2 melanoma is 2.79 µM and 14.3 µM; with SK-MEL-28 melanoma, 1.87 µM and 3.79 µM; in the experiment on SN12C renal it was over 100 µM; in the experiment with U251 CNS it was over 100 µM.

As for `Oc1[nH]c2ccccc2c1N=Nc1ccccn1`, the TGI with A498 renal was 70.6 µM; with CAKI-1 renal it was over 100 µM; with KM12 colon it was 97.8 µM; with NCI/ADR-RES ovarian, 28 µM; in the experiment with OVCAR-5 ovarian, over 100 µM; in the experiment with RPMI-8226 leukemia, over 100 µM. The TGI was over 100 µM in the experiment with SK-MEL-2 melanoma, over 100 µM in the experiment with SK-MEL-28 melanoma, over 100 µM in the experiment with SN12C renal and 46.6 µM with U251 CNS.

`CCOC(=O)N1CCN(c2nc(Nc3cc(C)[nH]n3)c3ccccc3n2)CC1`: the GI50 in the experiment with A498 renal is 0.423 µM; in the experiment on CAKI-1 renal, 0.97 µM; with KM12 colon it was 0.479 µM; in the experiment with NCI/ADR-RES ovarian it was 4.25 µM; in the experiment on OVCAR-5 ovarian it was 3.25 µM; in the experiment on RPMI-8226 leukemia, 3.4 µM. Further, the GI50 in the experiment on SK-MEL-2 melanoma is 0.737 µM; in the experiment on SK-MEL-28 melanoma, 12.2 µM; in the experiment with SN12C renal it was 2.24 µM; in the experiment on U251 CNS, 2.13 µM. For the same molecule, the TGI with A498 renal is 2.78 µM; in the experiment on CAKI-1 renal, 17.8 µM; with KM12 colon it was 23.1 µM; with NCI/ADR-RES ovarian, 37 µM; in the experiment on OVCAR-5 ovarian it was over 100 µM; with RPMI-8226 leukemia, 13.6 µM. Besides, the TGI in the experiment with SK-MEL-2 melanoma came out at 55.5 µM; with SK-MEL-28 melanoma, 91.3 µM; in the experiment on SN12C renal, 52 µM; in the experiment with U251 CNS, 23.5 µM.

For the molecule `C=C1C(=O)O[C@H]2[C@H]1CC/C(COC(=O)CSCCSCC(=O)OC/C1=C/CC[C@@]3(C)O[C@H]3[C@H]3OC(=O)C(=C)[C@@H]3CC1)=C\CC[C@@]1(C)O[C@@H]21`, the GI50 was 2.75 µM in the experiment on A498 renal; 1.79 µM in the experiment with CAKI-1 renal; 2.08 µM in the experiment with KM12 colon; 3.61 µM in the experiment with NCI/ADR-RES ovarian; 2.04 µM in the experiment on OVCAR-5 ovarian; 1.32 µM with RPMI-8226 leukemia. The GI50 is 2.76 µM in the experiment with SK-MEL-2 melanoma, 1.92 µM in the experiment with SK-MEL-28 melanoma, 2.19 µM in the experiment on SN12C renal and 1.66 µM with U251 CNS. Also, the TGI with A498 renal was found to be 10.7 µM; in the experiment with CAKI-1 renal, 3.31 µM; with KM12 colon, 4.06 µM; in the experiment with NCI/ADR-RES ovarian it was 16.7 µM; in the experiment on OVCAR-5 ovarian, 4.58 µM; with RPMI-8226 leukemia it was 4.48 µM. The TGI with SK-MEL-2 melanoma is 6.64 µM; in the experiment on SK-MEL-28 melanoma, 3.81 µM; with SN12C renal, 5.34 µM; with U251 CNS, 3.51 µM.

`COc1cccc(-c2cc(=O)c3cc(OC)ccc3[nH]2)c1`: the TGI with A498 renal is 0.111 µM; in the experiment with CAKI-1 renal, over 100 µM; in the experiment on KM12 colon it was over 100 µM; in the experiment on NCI/ADR-RES ovarian, 0.445 µM; with OVCAR-5 ovarian, over 100 µM; with SK-MEL-2 melanoma it was 7.11 µM and 20.2 µM. The TGI was over 100 µM in the experiment with SK-MEL-28 melanoma; 47.7 µM with SN12C renal; 3.36 µM and 13.2 µM in the experiment on U251 CNS. Also, the GI50 in the experiment with CAKI-1 renal is 0.0319 µM; in the experiment with KM12 colon, 0.0671 µM; in the experiment with OVCAR-5 ovarian it was 0.528 µM; in the experiment with RPMI-8226 leukemia it was 0.0288 µM; in the experiment with SK-MEL-2 melanoma, 0.0774 µM; in the experiment on SK-MEL-28 melanoma, 0.612 µM and 0.0852 µM. Besides, the GI50 with SN12C renal is 0.398 µM; with U251 CNS, 0.057 µM.

Turning to `COC(=O)c1c2c(c[n+]([O-])c1C)C(=O)C=CC2=O`, the GI50 with A498 renal is 13.1 µM; in the experiment with CAKI-1 renal it was 1.7 µM; in the experiment on KM12 colon it was 4.27 µM; in the experiment with NCI/ADR-RES ovarian, 3.27 µM; with OVCAR-5 ovarian, 1.9 µM; in the experiment on RPMI-8226 leukemia it was 3.9 µM. The GI50 in the experiment with SK-MEL-2 melanoma is 2.08 µM; in the experiment with SK-MEL-28 melanoma it was 2.14 µM; in the experiment on SN12C renal, 1.76 µM; in the experiment on U251 CNS, 2.15 µM. The TGI in the experiment with A498 renal was determined as 26.4 µM; in the experiment on CAKI-1 renal, 3.16 µM; in the experiment with KM12 colon it was 18.8 µM; in the experiment on NCI/ADR-RES ovarian, 14.4 µM; in the experiment on OVCAR-5 ovarian, 3.85 µM; in the experiment with RPMI-8226 leukemia, 26.6 µM. For the same molecule, the TGI in the experiment with SK-MEL-2 melanoma is 4.5 µM; in the experiment on SK-MEL-28 melanoma it was 3.97 µM; in the experiment on SN12C renal it was 3.23 µM; in the experiment with U251 CNS, 5.22 µM.

Consider `COc1ccc2c(c1)C(=O)c1c-2n(CCCN=[N+]=[N-])c(=O)c2cc(OC)c(OC)cc12`, for which the GI50 in the experiment with A498 renal was over 100 µM; with CAKI-1 renal, 3.82 µM; with KM12 colon it was over 100 µM; in the experiment on NCI/ADR-RES ovarian it was 80.1 µM; in the experiment with OVCAR-5 ovarian it was over 100 µM; with RPMI-8226 leukemia it was 0.868 µM. The GI50 is over 100 µM with SK-MEL-2 melanoma, over 100 µM in the experiment on SK-MEL-28 melanoma, 64.7 µM in the experiment with SN12C renal and 24.2 µM in the experiment with U251 CNS. For the same molecule, the TGI with A498 renal was over 100 µM; with CAKI-1 renal, 24.6 µM; in the experiment on KM12 colon, over 100 µM; in the experiment on NCI/ADR-RES ovarian, over 100 µM; with OVCAR-5 ovarian, over 100 µM; in the experiment on RPMI-8226 leukemia, 5.58 µM. Moreover, the TGI with SK-MEL-2 melanoma, with SK-MEL-28 melanoma, in the experiment on SN12C renal and in the experiment on U251 CNS was over 100 µM in each case.
